Test results reported in patent publication US8178570B2, “Tie-2 modulators and methods of use” (Exelixis, Inc., priority 2003, dated 2012).

What follows are compounds tested against Tie-2 (Homo sapiens, UniProt Q02763) (assay: Tie-2 tyrosine kinase activity: kinase-dependent ATP consumption (pEY substrate, luciferase/luciferin chemiluminescence) or 33P-ATP incorporation into substrate). Settings: Tie-2 (human enzyme) inhibition, Table 2, class symbols A-D.
Format: biochemical
Method in brief: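 Values are IC50 categories: A below 50 nM, B above 50 to 1000 nM, C above 1000 to below 10,000 nM, D 10,000 nM or more. They were measured by 33P-ATP phosphate transfer onto a generic substrate bound to the plate (scintillation), or by luminescent luciferase detection of ATP used with pEY.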

Sequence of Tie-2 (Q02763 23-1124): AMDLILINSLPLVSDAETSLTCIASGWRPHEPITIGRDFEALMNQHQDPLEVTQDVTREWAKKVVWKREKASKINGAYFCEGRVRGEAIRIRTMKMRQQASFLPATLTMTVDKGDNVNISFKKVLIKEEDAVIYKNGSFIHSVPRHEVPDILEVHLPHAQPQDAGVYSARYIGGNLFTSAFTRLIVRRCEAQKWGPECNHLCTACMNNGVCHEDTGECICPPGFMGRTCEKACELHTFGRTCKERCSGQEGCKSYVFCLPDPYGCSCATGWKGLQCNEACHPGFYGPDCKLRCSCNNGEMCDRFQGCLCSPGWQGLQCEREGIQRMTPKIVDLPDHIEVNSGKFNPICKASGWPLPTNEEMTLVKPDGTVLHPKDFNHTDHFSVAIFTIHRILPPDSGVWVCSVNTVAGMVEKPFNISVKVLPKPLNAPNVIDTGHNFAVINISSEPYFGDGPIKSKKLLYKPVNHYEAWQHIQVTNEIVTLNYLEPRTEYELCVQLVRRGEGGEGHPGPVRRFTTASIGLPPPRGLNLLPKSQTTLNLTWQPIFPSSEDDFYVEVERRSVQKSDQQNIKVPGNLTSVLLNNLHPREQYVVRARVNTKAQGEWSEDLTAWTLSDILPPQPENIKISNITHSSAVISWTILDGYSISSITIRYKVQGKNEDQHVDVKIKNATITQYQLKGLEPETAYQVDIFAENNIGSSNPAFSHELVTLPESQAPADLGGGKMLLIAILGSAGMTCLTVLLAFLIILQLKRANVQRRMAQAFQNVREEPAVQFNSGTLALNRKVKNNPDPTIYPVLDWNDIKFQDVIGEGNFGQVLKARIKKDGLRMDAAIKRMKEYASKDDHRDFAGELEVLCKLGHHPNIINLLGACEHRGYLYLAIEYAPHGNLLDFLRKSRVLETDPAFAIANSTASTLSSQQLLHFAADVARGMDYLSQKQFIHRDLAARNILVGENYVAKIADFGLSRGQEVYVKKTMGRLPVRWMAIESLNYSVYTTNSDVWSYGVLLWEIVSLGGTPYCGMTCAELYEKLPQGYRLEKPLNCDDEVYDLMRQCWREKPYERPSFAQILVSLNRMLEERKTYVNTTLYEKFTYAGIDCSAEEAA

SMILES	IC50
COc1ccc(-c2nc(-c3ccncc3)nn2CCN(C(=O)Nc2cc(C(F)(F)F)cc(C(F)(F)F)c2)C2CCCC2)cc1Cl [Entry 93, N′-[3,5-bis(trifluoromethyl)phenyl]-N-(2-{5-[3-chloro-4-(methyloxy)phenyl]-3-pyridin-4-yl-1H-1,2,4-triazol-1-yl}ethyl)-N-cyclopentylurea]	≥ 10 µM
COc1ccc(-c2nc(-c3ccncc3)nn2CCN(C(=O)Nc2cc(OC)c(OC)c(OC)c2)C2CCCC2)cc1Cl [Entry 94, N-(2-{5-[3-chloro-4-(methyloxy)phenyl]-3-pyridin-4-yl-1H-1,2,4-triazol-1-yl}ethyl)-N-cyclopentyl-N′-[3,4,5-tris(methyloxy)phenyl]urea]	≥ 10 µM
COc1ccc(-c2nc(-c3ccncc3)nn2CCN(C(=O)Nc2cccc(C(C)=O)c2)C2CCCC2)cc1Cl [Entry 95, N′-(3-acetylphenyl)-N-(2-{5-[3-chloro-4-(methyloxy)phenyl]-3-pyridin-4-yl-1H-1,2,4-triazol-1-yl}ethyl)-N-cyclopentylurea]	≥ 10 µM
COc1ccc(-c2nc(-c3ccncc3)nn2CCN(C(=O)Nc2ccc(C)c(C)c2)C2CCCC2)cc1Cl [Entry 96, N-(2-{5-[3-chloro-4-(methyloxy)phenyl]-3-pyridin-4-yl-1H-1,2,4-triazol-1-yl}ethyl)-N-cyclopentyl-N′-(3,4-dimethylphenyl)urea]	≥ 10 µM
COc1ccc(-c2nc(-c3ccncc3)nn2CCN(C(=O)Nc2ccc(Cl)cc2C(F)(F)F)C2CCCC2)cc1Cl [Entry 97, N-(2-{5-[3-chloro-4-(methyloxy)phenyl]-3-pyridin-4-yl-1H-1,2,4-triazol-1-yl}ethyl)-N′-[4-chloro-2-(trifluoromethyl)phenyl]-N-cyclopentylurea]	1 to 10 µM
COc1ccc(-c2nc(-c3ccncc3)nn2CCN(C(=O)Nc2ccc(C(C)=O)cc2)C2CCCC2)cc1Cl [Entry 99, N′-(4-acetylphenyl)-N-(2-{5-[3-chloro-4-(methyloxy)phenyl]-3-pyridin-4-yl-1H-1,2,4-triazol-1-yl}ethyl)-N-cyclopentylurea]	≥ 10 µM
COc1ccc(-c2nc(-c3ccncc3)nn2CCN(C(=O)Nc2ccc(C#N)cc2)C2CCCC2)cc1Cl [Entry 101, N-(2-{5-[3-chloro-4-(methyloxy)phenyl]-3-pyridin-4-yl-1H-1,2,4-triazol-1-yl}ethyl)-N′-(4-cyanophenyl)-N-cyclopentylurea]	≥ 10 µM
COc1ccc(-c2nc(-c3ccncc3)nn2CCN(C(=O)Nc2ccccc2-c2ccccc2)C2CCCC2)cc1Cl [Entry 102, N′-biphenyl-2-yl-N-(2-{5-[3-chloro-4-(methyloxy)phenyl]-3-pyridin-4-yl-1H-1,2,4-triazol-1-yl}ethyl)-N-cyclopentylurea]	≥ 10 µM
CCCCCNC(=O)N(CCn1nc(-c2ccncc2)nc1-c1ccc(OC)c(Cl)c1)C1CCCC1 [Entry 103, N-(2-{5-[3-chloro-4-(methyloxy)phenyl]-3-pyridin-4-yl-1H-1,2,4-triazol-1-yl}ethyl)-N-cyclopentyl-N′-pentylurea]	≥ 10 µM
CCCCCCCNC(=O)N(CCn1nc(-c2ccncc2)nc1-c1ccc(OC)c(Cl)c1)C1CCCC1 [Entry 104, N-(2-{5-[3-chloro-4-(methyloxy)phenyl]-3-pyridin-4-yl-1H-1,2,4-triazol-1-yl}ethyl)-N-cyclopentyl-N′-heptylurea]	≥ 10 µM
COc1ccc(-c2nc(-c3ccncc3)nn2CCN(C(=O)Nc2cccc(C)c2)C2CCCC2)cc1Cl [Entry 106, N-(2-{5-[3-chloro-4-(methyloxy)phenyl]-3-pyridin-4-yl-1H-1,2,4-triazol-1-yl}ethyl)-N-cyclopentyl-N′-(3-methylphenyl)urea]	≥ 10 µM
COc1ccc(-c2nc(-c3ccncc3)nn2CCN(C(=O)NC(C)C)C2CCCC2)cc1Cl [Entry 108, N-(2-{5-[3-chloro-4-(methyloxy)phenyl]-3-pyridin-4-yl-1H-1,2,4-triazol-1-yl}ethyl)-N-cyclopentyl-N′-(1-methylethyl)urea]	≥ 10 µM
CCNC(=O)N(CCn1nc(-c2ccncc2)nc1-c1ccc(OC)c(Cl)c1)C1CCCC1 [Entry 109, N-(2-{5-[3-chloro-4-(methyloxy)phenyl]-3-pyridin-4-yl-1H-1,2,4-triazol-1-yl}ethyl)-N-cyclopentyl-N′-ethylurea]	≥ 10 µM
CCCNC(=O)N(CCn1nc(-c2ccncc2)nc1-c1ccc(OC)c(Cl)c1)C1CCCC1 [Entry 110, N-(2-{5-[3-chloro-4-(methyloxy)phenyl]-3-pyridin-4-yl-1H-1,2,4-triazol-1-yl}ethyl)-N-cyclopentyl-N′-propylurea]	≥ 10 µM
COc1ccc(-c2nc(-c3ccncc3)nn2CCN(C(=O)NCCc2ccccc2)C2CCCC2)cc1Cl [Entry 113, N-(2-{5-[3-chloro-4-(methyloxy)phenyl]-3-pyridin-4-yl-1H-1,2,4-triazol-1-yl}ethyl)-N-cyclopentyl-N′-(2-phenylethyl)urea]	≥ 10 µM

Results, then the compound that gave them:

IC50	SMILES
1 to 10 µM	COc1ccc(-c2nc(-c3ccncc3)nn2CCN(C(=O)NCc2ccccc2)C2CCCC2)cc1Cl [Entry 92, N-(2-{5-[3-chloro-4-(methyloxy)phenyl]-3-pyridin-4-yl-1H-1,2,4-triazol-1-yl}ethyl)-N-cyclopentyl-N′-(phenylmethyl)urea]
≥ 10 µM	COc1ccc(-c2nc(-c3ccncc3)nn2CCN(C(=O)Nc2ccc(SC)cc2)C2CCCC2)cc1Cl [Entry 98, N-(2-{5-[3-chloro-4-(methyloxy)phenyl]-3-pyridin-4-yl-1H-1,2,4-triazol-1-yl}ethyl)-N-cyclopentyl-N′-[4-(methylthio)phenyl]urea]
≥ 10 µM	COc1ccc(-c2nc(-c3ccncc3)nn2CCN(C(=O)Nc2ccc(C(C)C)cc2)C2CCCC2)cc1Cl [Entry 100, N-(2-{5-[3-chloro-4-(methyloxy)phenyl]-3-pyridin-4-yl-1H-1,2,4-triazol-1-yl}ethyl)-N-cyclopentyl-N′-[4-(1-methylethyl)phenyl]urea]
≥ 10 µM	COc1ccc(-c2nc(-c3ccncc3)nn2CCN(C(=O)Nc2cccc(Cl)c2)C2CCCC2)cc1Cl [Entry 105, N-(2-{5-[3-chloro-4-(methyloxy)phenyl]-3-pyridin-4-yl-1H-1,2,4-triazol-1-yl}ethyl)-N′-(3-chlorophenyl)-N-cyclopentylurea]
≥ 10 µM	COc1ccc(-c2nc(-c3ccncc3)nn2CCN(C(=O)NC(C)(C)C)C2CCCC2)cc1Cl [Entry 107, N-(2-{5-[3-chloro-4-(methyloxy)phenyl]-3-pyridin-4-yl-1H-1,2,4-triazol-1-yl}ethyl)-N-cyclopentyl-N′-(1,1-dimethylethyl)urea]
1 to 10 µM	CCOc1ccc(NC(=O)N(CCn2nc(-c3ccncc3)nc2-c2ccc(OC)c(Cl)c2)C2CCCC2)cc1 [Entry 111, N-(2-{5-[3-chloro-4-(methyloxy)phenyl]-3-pyridin-4-yl-1H-1,2,4-triazol-1-yl}ethyl)-N-cyclopentyl-N′-[4-(ethyloxy)phenyl]urea]
≥ 10 µM	CCc1ccc(NC(=O)N(CCn2nc(-c3ccncc3)nc2-c2ccc(OC)c(Cl)c2)C2CCCC2)cc1 [Entry 112, N-(2-{5-[3-chloro-4-(methyloxy)phenyl]-3-pyridin-4-yl-1H-1,2,4-triazol-1-yl}ethyl)-N-cyclopentyl-N′-(4-ethylphenyl)urea]
